What was measured:
Type in all cases: binding
HRH3 = molecular target: T1, HRH3 (Homo sapiens, UniProt Q9Y5N1); test: NanoBRET screen HiBiT-HRH3 in HEK293; details: HRH3
T1 construct: purchased Promega (in-house HiBiT-GPCR construct library, NanoBRET)
Experimental: (§1) Each tracer candidate was screened across the entire library of HiBiT-GPCR constructs using NanoBRET as the detection modality. As depicted in Figure 4A, the specificity of interactions was evaluated through decrease in BRET due to competitive displacement of a bound tracer by excess parental compound. Each tracer was analyzed for binding to each HiBiT-GPCR fusion in the absence and in the presence of competing parental compound. Briefly, HEK293 cells were transfected with HiBiT-GPCR constructs diluted into promoterless DNA to reduce expression and maximize translocation to the cell surface. Each tracer candidate was then screened at concentrations of 1 μM and 0.1 μM across cells expressing these fusions. Cells were treated for 1.5 h with tracer either alone or in the presence of 20 μM competing parental compound (i.e., control). BRET was measured upon addition of purified LgBiT and subsequent complementation with HiBiT genetically fused to a GPCR. The specificity of interactions was assessed through a decrease in BRET signal due to competitive displacement of the bound tracer. To further gauge the robustness of these interactions, the fold response over the control (i.e., BRETtracer/BRETcontrol) was calculated. We chose a 1.5-fold response, which translates to ≥7-fold signal over noise as the minimal threshold required to score an interaction as positive. […]. Below we highlight the screening results obtained for our exemplary fluorescent tracers based on Clozapine, Amitriptyline and AZD1283.
(§2) HiBiT-GPCR DNA constructs were diluted in 10 mM Tris pH 8 to a final concentration of 0.01 μg/μL, arrayed in 96-well plates and stored at −20 °C. For transfection, HEK293 cells were suspended in Opti-MEM (without phenol red) supplemented with 2% fetal bovine serum (Seradigm) and 100 units/mL penicillin–streptomycin (Gibco) at a final concentration of 220,000 cells/mL and dispensed into white 96-well plates at 90 μL/well. Subsequent transfections and screens were carried using an Agilent Bravo Automated Liquid Handling Platform. First, the 96-well HiBiT DNA arrays were diluted 25-fold in Opti-MEM (without serum or phenol red) to a final concentration of 0.0004 μg/μL and 20 μL of the diluted DNAs were transferred into new 96-well plates. Next, promoterless carrier DNA (1 μg/μL) was diluted 25-fold (0.04 μg/μL) and then dispensed into the diluted arrays at 20 μL/well. Following brief mixing, Viafect transfection reagent (Promega) diluted 16-fold into Opti-MEM was dispensed into the plates at 40 μL/well. After mixing by pipetting, plates were incubated for 10 min on the pipetting station deck. The DNA-transfection reagent complexes were then added to plates containing cells. To facilitate the screen, 10 μL of DNA-transfection reagent complexes were added in duplicates to the top 4 and bottom 4 rows, resulting in two identical 48-well arrays per plate. Plates with transfected cells were incubated for 18–20 h at 37 °C/5% CO2. A screen of each tracer across the entire library using two different concentrations requires duplicate plates of transfected cells. Depending on the number of tracers being screened, transfections can be scaled up using the same ratios. The next day, for each tracer, four 20× screening solutions in tracer dilution buffer (Promega) were prepared: two duplicates at final concentration of 20 μM and two duplicates at a final concentration of 2 μM. A competing unmodified compound was added to one of each duplicate at a final concentration of 400 μM. The four resulting solutions were diluted 4-fold in Opti-MEM without serum or phenol red to generate 5× solutions (5 µM and 0.5 µM tracer +/− 100 μM competing compound). To screen the library, a BioTek MultiFlo FX liquid dispenser was used to dispense 22.5 µL of tracer solution to the top 4 rows and 22.5 µL tracer + competing compound solution to the 4 bottom rows. Plates were briefly mixed on an orbital shaker and incubated for 1.5 h at room temperature. […]

GRM3 = molecular target: T2, GRM3 (Homo sapiens, UniProt Q14832); test: NanoBRET screen HiBiT-GRM3 in HEK293; details: GRM3
T2 construct: purchased Promega (in-house HiBiT-GPCR construct library, NanoBRET)
Experimental: as §1, §2

PTGIR = molecular target: T3, PTGIR (Homo sapiens, UniProt P43119); test: NanoBRET screen HiBiT-PTGIR in HEK293; details: PTGIR
T3 construct: purchased Promega (in-house HiBiT-GPCR construct library, NanoBRET)
Experimental: as §1, §2

GNRHR = molecular target: T4, GNRHR (Homo sapiens, UniProt P30968); test: NanoBRET screen HiBiT-GNRHR in HEK293; details: GNRHR
T4 construct: purchased Promega (in-house HiBiT-GPCR construct library, NanoBRET)
T4 sequence (P30968 1-328): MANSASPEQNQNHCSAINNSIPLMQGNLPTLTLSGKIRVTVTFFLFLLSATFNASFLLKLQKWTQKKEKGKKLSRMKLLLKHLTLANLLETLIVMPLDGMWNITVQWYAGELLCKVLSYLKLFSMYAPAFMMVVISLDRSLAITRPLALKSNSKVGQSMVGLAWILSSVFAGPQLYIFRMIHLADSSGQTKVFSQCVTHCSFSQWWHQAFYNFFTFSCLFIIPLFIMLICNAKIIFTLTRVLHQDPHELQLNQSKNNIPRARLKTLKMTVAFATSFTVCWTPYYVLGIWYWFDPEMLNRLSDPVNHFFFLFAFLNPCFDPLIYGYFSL
Experimental: as §1, §2

T1 sequence (Q9Y5N1 whole entry): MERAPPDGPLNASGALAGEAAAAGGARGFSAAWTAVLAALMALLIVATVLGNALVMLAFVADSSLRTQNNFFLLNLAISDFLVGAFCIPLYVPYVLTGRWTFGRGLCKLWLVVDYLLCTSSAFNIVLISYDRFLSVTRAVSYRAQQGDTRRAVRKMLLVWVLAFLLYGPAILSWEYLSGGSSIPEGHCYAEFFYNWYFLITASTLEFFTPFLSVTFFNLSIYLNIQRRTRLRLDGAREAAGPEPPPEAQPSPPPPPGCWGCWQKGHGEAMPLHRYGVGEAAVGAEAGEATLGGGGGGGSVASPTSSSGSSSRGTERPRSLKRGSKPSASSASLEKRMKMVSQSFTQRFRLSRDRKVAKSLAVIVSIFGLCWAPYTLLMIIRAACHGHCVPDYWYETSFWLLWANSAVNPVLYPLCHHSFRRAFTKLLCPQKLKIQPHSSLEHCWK
T2 sequence (Q14832 23-879): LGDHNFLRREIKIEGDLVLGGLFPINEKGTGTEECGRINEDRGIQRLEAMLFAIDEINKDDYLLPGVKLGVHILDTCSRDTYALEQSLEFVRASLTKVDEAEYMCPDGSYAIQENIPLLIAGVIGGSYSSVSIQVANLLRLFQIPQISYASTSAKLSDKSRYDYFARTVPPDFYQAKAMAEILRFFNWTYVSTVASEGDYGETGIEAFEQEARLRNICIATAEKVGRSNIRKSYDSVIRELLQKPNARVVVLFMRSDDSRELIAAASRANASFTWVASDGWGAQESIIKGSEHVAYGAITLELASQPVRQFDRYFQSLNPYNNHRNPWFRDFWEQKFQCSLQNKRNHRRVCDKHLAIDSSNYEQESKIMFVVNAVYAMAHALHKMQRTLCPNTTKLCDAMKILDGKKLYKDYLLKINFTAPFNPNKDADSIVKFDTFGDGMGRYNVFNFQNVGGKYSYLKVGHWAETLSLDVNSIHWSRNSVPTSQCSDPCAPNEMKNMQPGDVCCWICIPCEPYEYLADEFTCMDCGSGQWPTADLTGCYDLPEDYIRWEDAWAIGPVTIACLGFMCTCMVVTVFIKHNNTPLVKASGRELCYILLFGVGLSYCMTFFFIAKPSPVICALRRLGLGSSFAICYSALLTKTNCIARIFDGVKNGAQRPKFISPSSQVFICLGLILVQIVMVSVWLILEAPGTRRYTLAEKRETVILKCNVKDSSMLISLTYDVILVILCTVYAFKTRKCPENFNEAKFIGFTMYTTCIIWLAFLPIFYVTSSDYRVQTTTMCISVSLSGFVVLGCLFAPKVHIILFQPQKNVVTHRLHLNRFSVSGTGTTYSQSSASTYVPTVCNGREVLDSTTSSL
T3 sequence (P43119 whole entry): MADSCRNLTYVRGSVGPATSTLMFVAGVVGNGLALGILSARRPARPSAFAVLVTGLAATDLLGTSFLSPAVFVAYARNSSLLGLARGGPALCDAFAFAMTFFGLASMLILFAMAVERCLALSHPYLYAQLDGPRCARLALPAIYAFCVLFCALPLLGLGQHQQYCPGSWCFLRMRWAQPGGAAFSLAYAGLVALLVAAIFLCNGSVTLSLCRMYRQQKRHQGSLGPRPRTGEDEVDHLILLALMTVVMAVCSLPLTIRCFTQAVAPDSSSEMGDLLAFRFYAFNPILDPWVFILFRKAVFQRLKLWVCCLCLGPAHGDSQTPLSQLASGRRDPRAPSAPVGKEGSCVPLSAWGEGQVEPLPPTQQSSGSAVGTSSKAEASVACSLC

| SMILES | NanoBRET Fold Response (HRH3; tracer 0.1μM) | NanoBRET Fold Response (HRH3; tracer 1μM) | NanoBRET Fold Response (GRM3; tracer 0.1μM) | NanoBRET Fold Response (GRM3; tracer 1μM) | NanoBRET Fold Response (PTGIR; tracer 0.1μM) | NanoBRET Fold Response (PTGIR; tracer 1μM) | NanoBRET Fold Response (GNRHR; tracer 0.1μM) | NanoBRET Fold Response (GNRHR; tracer 1μM) | NanoBRET Fold Response (HRH3; 0.1μM) | NanoBRET Fold Response (HRH3; 1μM) | NanoBRET Fold Response (GRM3; 0.1μM) | NanoBRET Fold Response (GRM3; 1μM) | NanoBRET Fold Response (PTGIR; 0.1μM) | NanoBRET Fold Response (PTGIR; 1μM) | NanoBRET Fold Response (GNRHR; 0.1μM) | NanoBRET Fold Response (GNRHR; 1μM) |
| --- | --- | --- | --- | --- | --- | --- | --- | --- | --- | --- | --- | --- | --- | --- | --- | --- |
| Cc1cc2c(s1)Nc1ccccc1N=C2N1CCN(CCCNC(=O)CCOCCOCCOCCOCCNC(=O)CCc2ccc3n2[B-](F)(F)[N+]2=C(c4ccc[nH]4)C=CC2=C3)CC1 [Olanzapine-a-2-NB590] | 1.06 | 1.16 | 1.02 | 1.02 | 0.99 | 0.98 | 1.02 | 1.04 |  |  |  |  |  |  |  |  |
| O=C(CCc1ccc2n1[B-](F)(F)[N+]1=C(c3ccc[nH]3)C=CC1=C2)NCc1ccc(C(=O)NCCOCCOCCNCC(O)COc2cccc3ccccc23)cc1 (centres unmarked) [Propranolol-3-NB590] |  |  |  |  |  |  |  |  | 0.97 | 1.00 | 1.02 | 0.95 | 1.05 | 0.97 | 1.12 | 1.03 |
| O=C(CCc1ccc2n1[B-](F)(F)[N+]1=C(c3ccc[nH]3)C=CC1=C2)NCCOCCOCCNC(=O)OCCOCCN1CCN(C2=Nc3ccccc3Sc3ccccc32)CC1 [Quetiapine-a-2-NB590] | 1.09 | 0.98 | 1.08 | 1.09 | 1.03 | 0.94 | 0.97 | 0.81 |  |  |  |  |  |  |  |  |
| Cc1nc2n(c(=O)c1CCN1CCC(c3noc4cc(F)ccc34)CC1)CCCC2OC(=O)NCCOCCOCCOCCOCCNC(=O)CCc1ccc2n1[B-](F)(F)[N+]1=C(c3ccc[nH]3)C=CC1=C2 (centres unmarked) [Risperidone-2-NB590] | 1.07 | 1.58 | 1.07 | 1.07 | 1.02 | 1.01 | 0.88 | 0.97 |  |  |  |  |  |  |  |  |
| CC(C)N(CC[C@H](c1ccccc1)c1cc(CCNC(=O)CCOCCOCCOCCOCCNC(=O)CCc2ccc3n2[B-](F)(F)[N+]2=C(c4ccc[nH]4)C=CC2=C3)ccc1O)C(C)C [Tolterodine-2-NB590] | 1.49 | 1.07 | 0.82 | 1.09 | 1.07 | 1.12 | 1.23 | 1.15 |  |  |  |  |  |  |  |  |
| CC(C)N(CC[C@H](c1ccccc1)c1cc(CCNC(=O)c2ccc(CNC(=O)CCc3ccc4n3[B-](F)(F)[N+]3=C(c5ccc[nH]5)C=CC3=C4)cc2)ccc1O)C(C)C [Tolterodine-BZ-NB590] | 1.16 | 1.28 | 0.99 | 1.06 | 1.00 | 1.04 | 1.03 | 1.07 |  |  |  |  |  |  |  |  |
| CCCn1c(=O)c2[nH]c(-c3ccc(OCC(=O)NCCNC(=O)CCOCCNC(=O)c4ccc(CNC(=O)CCc5ccc6n5[B-](F)(F)[N+]5=C(c7ccc[nH]7)C=CC5=C6)cc4)cc3)nc2n(CCC)c1=O [XAC-3-NB590] | 0.81 | 1.33 | 1.02 | 1.10 | 0.99 | 1.05 | 0.94 | 0.98 |  |  |  |  |  |  |  |  |

Reference: article PMC8151276, “An Integrated Approach toward NanoBRET Tracers for Analysis of GPCR Ligand Engagement” (Molecules, 2021)
